# Data published in patent US10730911B2, “Backbone-cyclized peptidomimetics with GLP-1R modulating activity” (POLYPHOR AG, priority 2015, dated 2020).
# Where a SMILES comes first, the peptide text is derived from it. [ ]: non-standard residue; d: D form. Trp(5-OH) = N[C@@H](Cc1c[nH]c2ccc(O)cc12)C(=O)O; His(π-Bn) = N[C@@H](Cc1cncn1Cc1ccccc1)C(=O)O; Phe(4-NH2) = Nc1ccc(C[C@H](N)C(=O)O)cc1; 4Pal = N[C@@H](Cc1ccncc1)C(=O)O; Ac7c = NC1(C(=O)O)CCCCCC1; Ac6c = NC1(C(=O)O)CCCCC1; Dpg = CCCC(N)(CCC)C(=O)O; Deg = CCC(N)(CC)C(=O)O; Aib = CC(C)(N)C(=O)O
# Target: T1, human glucagon-like peptide-1 receptor (GLP-1R) (Homo sapiens, UniProt P43220)
# T1 construct: host or cells: CHO chAMPion cells
# T1 sequence (P43220 24-463): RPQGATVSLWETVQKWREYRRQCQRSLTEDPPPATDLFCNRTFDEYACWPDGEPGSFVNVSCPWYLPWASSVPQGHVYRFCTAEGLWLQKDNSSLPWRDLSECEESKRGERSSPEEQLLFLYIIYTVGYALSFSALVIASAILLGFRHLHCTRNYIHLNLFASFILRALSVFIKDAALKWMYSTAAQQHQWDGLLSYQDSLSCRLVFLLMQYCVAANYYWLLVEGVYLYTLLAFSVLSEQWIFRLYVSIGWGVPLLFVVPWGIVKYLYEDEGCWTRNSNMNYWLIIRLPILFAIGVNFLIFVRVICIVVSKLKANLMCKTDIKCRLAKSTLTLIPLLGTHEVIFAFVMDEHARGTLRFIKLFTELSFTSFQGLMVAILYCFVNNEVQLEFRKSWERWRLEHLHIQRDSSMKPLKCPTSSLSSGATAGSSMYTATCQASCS
# Assay: Human GLP-1 receptor cell-based assay (flash luminescence, Target Activation phase)
# Conditions: CHO chAMPion cells stably co-expressing human GLP-1R, Photina and cAMP-activated calcium channel; agonist activity; normalization by forskolin at 10 μM; ^a) values from single experiment; read-out: EC50 (μM) Target Activation (TA)
# From the text: CHO chAMPion cells (Axxam SpA; S. Corazza, Assay Drug Dev. Technol. 2009, 7, 304-307) stably co-expressing the human glucagon-like peptide-1 receptor (GLP-1R), the Ca^2+-sensitive photoprotein PHOTINA® (S. Bovolenta et al., J. Biomol. Screen. 2007, 12, 694-704) and a mutated cAMP-activated calcium ion channel (WO2004/083803 A2) were used to monitor GLP-1R signaling after stimulation with an agonist. Activation of the Gas-coupled GPCR GLP-1R was monitored by measuring the flash luminescence of the Ca^2+-sensitive photoprotein as reporter system with FLIPR^TETRA screening instrumentation (Molecular Devices) upgraded with an ICCD Camera (MDC). For data quality check and data analysis the Genedata SCREENER® software was used.
# The reference agonist GLP-1 (glucagon-like peptide-1 amide fragment 7-36) and forskolin were purchased from Sigma (cat. G8147 and F6886, respectively) and prepared according to each ligand's specifications. All handling of ligands were done to ensure proper control throughout the experiments. The steps of the implemented workflow and data analysis are mainly as follows:
# Stably transfected chAMPion cells are seeded 10000 c/w in 384 MTP in Dulbecco's MEM/nutrient mix F12 (BioWhittaker cat. BE04-687F/U1; 500 mL) supplemented with sodium pyruvate (BioWhittaker cat. BE13-115E; 5 mL of 100 mM solution), HEPES (BioWhittaker cat. BE17-737E; 6.5 mL of 1M solution), sodium bicarbonate (BioWhittaker cat. BE17-613E; 25 mL of 7.5% solution), fetal bovine serum (Euroclone cat. ECS 0180L; 50 mL), penicillin-streptomycin (BioWhittaker cat. DE17-602E; 5 mL of 100×solution), 1 mg/mL G418 (selection antibiotic for GLP-1R) and 200 μg/mL hygromycin in 25 μL/well for 24 hours. On the day of the experiment, plates are removed from the incubator, freed from the growth medium, equilibrated at room temperature for 1 h, loaded with 30 μl/well of Ca^2+ free Tyrode's buffer containing 20 μM coelentrazine and 500 μM IBMX, and incubated for 4 hours at room temperature.
# All compounds were tested at 8 concentrations, starting from 50 μM in quadruplicate, intra-plate (dilution step 1:2.15) to determine EC50 values. After incubation, the volume in all the wells is flattened to 20 αL by aspiration with a CYBIO®-VARIO pipettor. First Injection (10 μL of test compounds in Ca^2+ free Tyrode's buffer, DMSO 0.5% v/v and BSA 0.01%; or 10 μL of reference compounds GLP-1 or forskolin in Ca′ free Tyrode's buffer, DMSO 0.5% v/v and BSA 0.01%) is performed by the FLIPR^TETRA and the kinetic response is optionally monitored over a period of 60 seconds. Incubation for 30 minutes at room temperature is followed by the Second Injection (Tyrode's buffer+10 mM CaCl2)) and the kinetic response is monitored over a period of 60 seconds.
# The kinetic response is divided into two distinct phases: monitoring the kinetic response after the First Injection, termed Compound Addition (CA), and monitoring the kinetic response after the Second Injection of 10 mM CaCl2, termed Target Activation (TA). Agonist activity of compounds is evaluated in the Target Activation (TA) phase and it is based on normalization to TA activation by forskolin at 10 μM or GLP-1 at 3.16 nM (EC100)
# A good correlation was observed between EC50, data normalized by forskolin and by GLP-1.
row,Structure (SMILES),EC50
1,"CC(C)C[C@@H]1NC(=O)[C@H](CC(C)C)NC(=O)[C@H](CCC(=O)O)NC(=O)[C@H](Cc2ccccc2)NC(=O)C2(CCCCCC2)NC(=O)[C@H]2CCCN2C(=O)[C@H](Cc2ccccc2)NC(=O)[C@H](CCC(=O)O)NC(=O)[C@H](Cc2c[nH]c3ccccc23)NC(=O)[C@H](C)NC1=O [compound 53, cyclo(-Phe-Glu-Leu-Leu-Ala-Trp-Glu-Phe-^DPro-Ac7c-)] (cyclo(FELLAWEF[dP][Ac7c]))",2.1 µM
2,"COc1ccc(C[C@@H]2NC(=O)[C@H](CCC(N)=O)NC(=O)[C@H](Cc3c[nH]c4ccccc34)NC(=O)[C@H](Cc3ccccc3)NC(=O)C3(CCCCC3)NC(=O)[C@H]3CCCN3C(=O)[C@H](Cc3ccc(O)cc3)NC(=O)[C@H](CCC(=O)O)NC(=O)[C@H](Cc3c[nH]c4ccccc34)NC(=O)[C@H](C)NC2=O)cc1 [compound 8, cyclo(-Phe-Trp-Gln-Tyr(Me)-Ala-Trp-Glu-Tyr-^DPro-Chx-)] (cyclo(FWQY(Me)AWEY[dP][Ac6c]))",0.35 ± 0.3 µM
3,"C[C@@H]1NC(=O)[C@H](Cc2ccc(O)cc2)NC(=O)[C@H](CCC(N)=O)NC(=O)[C@H](Cc2c[nH]c3ccccc23)NC(=O)[C@H](Cc2ccccc2)NC(=O)C2(CCCCC2)NC(=O)[C@H]2CCCN2C(=O)[C@H](Cc2c[nH]c3ccc(O)cc23)NC(=O)[C@H](CCC(=O)O)NC(=O)[C@H](Cc2c[nH]c3ccccc23)NC1=O [compound 18, cyclo(-Phe-Trp-Gln-Tyr-Ala-Trp-Glu-Trp(5OH)-^DPro-Chx-)] (cyclo(FWQYAWE[Trp(5-OH)][dP][Ac6c]))",0.82 ± 0.55 µM
4,"COc1ccc(C[C@@H]2NC(=O)[C@H](CCC(=O)O)NC(=O)[C@H](Cc3c[nH]c4ccccc34)NC(=O)[C@H](C)NC(=O)[C@H](Cc3ccc(O)cc3)NC(=O)[C@H](CCC(N)=O)NC(=O)[C@H](Cc3c[nH]c4ccccc34)NC(=O)[C@H](Cc3ccccc3)NC(=O)C3(CCCCC3)NC(=O)[C@H]3CCCN3C2=O)cc1 [compound 9, cyclo(-Phe-Trp-Gln-Tyr-Ala-Trp-Glu-Tyr(Me)-^DPro-Chx-)] (cyclo(FWQYAWEY(Me)[dP][Ac6c]))",0.8 ± 0.69 µM
5,"CC(C)C[C@@H]1NC(=O)[C@H](CC(C)C)NC(=O)[C@H](CCC(=O)O)NC(=O)[C@H](Cc2ccccc2)NC(=O)C2(CCCCC2)NC(=O)[C@H]2CCCN2C(=O)[C@H](Cc2ccccc2)NC(=O)[C@H](CCC(=O)O)NC(=O)[C@H](Cc2c[nH]c3ccccc23)NC(=O)[C@H](C)NC1=O [Ex. 43, cyclo(-Phe-Glu-Leu-Leu-Ala-Trp-Glu-Phe-^DPro-Chx-)] (cyclo(FELLAWEF[dP][Ac6c]))",4.5 ± 2.6 µM
6,"C[C@@H]1NC(=O)[C@H](Cc2ccc(O)cc2)NC(=O)[C@H](CCC(N)=O)NC(=O)[C@H](Cc2c[nH]c3ccccc23)NC(=O)[C@H](Cc2ccccc2)NC(=O)C2(CCCCC2)NC(=O)[C@H]2CCCN2C(=O)[C@H](Cc2cncn2Cc2ccccc2)NC(=O)[C@H](CCC(=O)O)NC(=O)[C@H](Cc2c[nH]c3ccccc23)NC1=O [compound 15, cyclo(-Phe-Trp-Gln-Tyr-Ala-Trp-Glu-His(Bn)-^DPro-Chx-)] (cyclo(FWQYAWE[His(π-Bn)][dP][Ac6c]))",0.7 ± 0.42 µM
7,"CC(C)C[C@@H]1NC(=O)[C@H](CCC(=O)O)NC(=O)[C@H](Cc2ccccc2)NC(=O)C2(CCCCC2)NC(=O)[C@H]2CCCN2C(=O)[C@H](Cc2ccccc2)NC(=O)[C@H](CCC(=O)O)NC(=O)[C@H](Cc2c[nH]c3ccccc23)NC(=O)[C@H](C)NC(=O)[C@H](Cc2ccc(O)cc2)NC1=O [compound 31, cyclo(-Phe-Glu-Leu-Tyr-Ala-Trp-Glu-Phe-^DPro-Chx-)] (cyclo(FELYAWEF[dP][Ac6c]))",0.68 µM
8,"C[C@@H]1NC(=O)[C@H](Cc2ccc(O)cc2)NC(=O)[C@H](CCC(N)=O)NC(=O)[C@H](Cc2ccncc2)NC(=O)[C@H](Cc2ccccc2)NC(=O)C2(CCCCC2)NC(=O)[C@H]2CCCN2C(=O)[C@H](Cc2ccc(O)cc2)NC(=O)[C@H](CCC(=O)O)NC(=O)[C@H](Cc2c[nH]c3ccccc23)NC1=O [compound 33, cyclo(-Phe-4Pal-Gln-Tyr-Ala-Trp-Glu-Tyr-^DPro-Chx-)] (cyclo(F[4Pal]QYAWEY[dP][Ac6c]))",0.99 ± 0.37 µM
9,"CCCC1(CCC)NC(=O)[C@H]2CCCN2C(=O)[C@H](Cc2ccccc2)NC(=O)[C@H](CCC(=O)O)NC(=O)[C@H](Cc2c[nH]c3ccccc23)NC(=O)[C@H](C)NC(=O)[C@H](CC(C)C)NC(=O)[C@H](CC(C)C)NC(=O)[C@H](CCC(=O)O)NC(=O)[C@H](Cc2ccccc2)NC1=O [compound 26, cyclo(-Phe-Glu-Leu-Leu-Ala-Trp-Glu-Phe-^DPro-Dpg-)] (cyclo(FELLAWEF[dP][Dpg]))",1 ± 0.5 µM
10,"CC(C)C[C@@H]1NC(=O)[C@H](CC(C)C)NC(=O)[C@H](CCC(=O)O)NC(=O)[C@H](Cc2ccccc2)NC(=O)C(C)(C)NC(=O)[C@H]2CCCN2C(=O)[C@H](Cc2ccccc2)NC(=O)[C@H](CCC(=O)O)NC(=O)[C@H](Cc2c[nH]c3ccccc23)NC(=O)[C@H](C)NC1=O [compound 45, cyclo(-Phe-Glu-Leu-Leu-Ala-Trp-Glu-Phe-^DPro-Aib-)] (cyclo(FELLAWEF[dP][Aib]))",1.8 µM
11,"CCC1(CC)NC(=O)[C@H]2CCCN2C(=O)[C@H](Cc2ccccc2)NC(=O)[C@H](CCC(=O)O)NC(=O)[C@H](Cc2c[nH]c3ccccc23)NC(=O)[C@H](C)NC(=O)[C@H](CC(C)C)NC(=O)[C@H](CC(C)C)NC(=O)[C@H](CCC(=O)O)NC(=O)[C@H](Cc2ccccc2)NC1=O [compound 47, cyclo(-Phe-Glu-Leu-Leu-Ala-Trp-Glu-Phe-^DPro-Deg-)] (cyclo(FELLAWEF[dP][Deg]))",2 µM
12,"C[C@@H]1NC(=O)[C@H](Cc2ccc(O)cc2)NC(=O)[C@H](CCC(N)=O)NC(=O)[C@H](Cc2c[nH]c3ccccc23)NC(=O)[C@H](Cc2ccccc2)NC(=O)C2(CCCCC2)NC(=O)[C@H]2CCCN2C(=O)[C@H](Cc2ccc(N)cc2)NC(=O)[C@H](CCC(=O)O)NC(=O)[C@H](Cc2c[nH]c3ccccc23)NC1=O [compound 30, cyclo(-Phe-Trp-Gln-Tyr-Ala-Trp-Glu-Phe(4NH2)-^DPro-Chx-)] (cyclo(FWQYAWE[Phe(4-NH2)][dP][Ac6c]))",0.63 µM
13,"CC(C)C[C@@H]1NC(=O)[C@H](Cc2c[nH]c3ccccc23)NC(=O)[C@H](Cc2ccccc2)NC(=O)C2(CCCCC2)NC(=O)[C@H]2CCCN2C(=O)[C@H](Cc2ccc(O)cc2)NC(=O)[C@H](CCC(=O)O)NC(=O)[C@H](Cc2c[nH]c3ccccc23)NC(=O)[C@H](C)NC(=O)[C@H](Cc2ccc(O)cc2)NC1=O [compound 12, cyclo(-Phe-Trp-Leu-Tyr-Ala-Trp-Glu-Tyr-^DPro-Chx-)] (cyclo(FWLYAWEY[dP][Ac6c]))",0.48 ± 0.24 µM
14,"CC(C)C[C@@H]1NC(=O)[C@H](CCC(=O)O)NC(=O)[C@H](Cc2ccccc2)NC(=O)C2(CCCCC2)NC(=O)[C@H]2CCCN2C(=O)[C@H](Cc2c[nH]c3ccc(O)cc23)NC(=O)[C@H](CCC(=O)O)NC(=O)[C@H](Cc2c[nH]c3ccccc23)NC(=O)[C@H](C)NC(=O)[C@H](Cc2ccc(O)cc2)NC1=O [compound 25, cyclo(-Phe-Glu-Leu-Tyr-Ala-Trp-Glu-Trp(5OH)-^DPro-Chx-)] (cyclo(FELYAWE[Trp(5-OH)][dP][Ac6c]))",0.94 ± 0.68 µM
15,"CC(C)C[C@@H]1NC(=O)[C@H](CCC(=O)O)NC(=O)[C@H](Cc2ccccc2)NC(=O)C2(CCCCC2)NC(=O)[C@H]2CCCN2C(=O)[C@H](Cc2cncn2Cc2ccccc2)NC(=O)[C@H](CCC(=O)O)NC(=O)[C@H](Cc2c[nH]c3ccccc23)NC(=O)[C@H](C)NC(=O)[C@H](Cc2ccc(O)cc2)NC1=O [compound 36, cyclo(-Phe-Glu-Leu-Tyr-Ala-Trp-Glu-His(Bn)-^DPro-Chx-)] (cyclo(FELYAWE[His(π-Bn)][dP][Ac6c]))",0.85 µM
